Assay results: patent US4588722A, “N-(4-piperidinyl) bicyclic condensed 2-imidazolamine derivatives” (priority 1984, dated 1986)
Where a name gives a salt, the structure may show the parent alone.

Test system: compound 48/80-induced lethality in rats
Assay: Protection of rats from compound 48/80-induced lethality
Format: in vivo, rat (male, inbred Wistar strain)
Settings: Rattus norvegicus; test compound subcutaneously or orally (route of each value not given) 1 hour before compound 48/80 0.5 mg/kg intravenously; dose protecting 50% of animals, survival after 4 hours; read-out: Compound 48/80 lethality test in rats-ED50
From the text: PROTECTION OF RATS FROM COMPOUND 48/80-INDUCED LETHALITY
Compound 48/80, a mixture of oligomers obtained by condensation of 4-methoxy-N-methylbenzeneethanamine and formaldehyde has been described as a potent histamine releasing agent (Int. Arch. Allergy, 13, 336 (1958)). The protection from compound 48/80-induced lethal circulatory collapse appears to be a simple way of evaluating quantitatively the antihistaminic activity of test compounds. Male rats of an inbred Wistar strain, weighing 240-260 g were used in the experiment. After overnight starvation the rats were transferred to conditioned laboratories (temp.=21±1° C., relative humidity=65±5%). The rats were treated subcutaneously or orally with a test compound or with the solvent (NaCl solution, 0.9%). One hour after treatment there was injected intravenously compound 48/80, freshly dissolved in water, at a dose of 0.5 mg/kg (0.2 ml/100 g of body weight). In control experiments, wherein 250 solvent-treated animals were injected with the standard dose of compound 48/80, not more than 2.8% of the animals survived after 4 hours. Survival after 4 hours is therefore considered to be a safe criterion of a protective effect of drug administration.
Said ED50 -values are the values in mg/kg body weight at which the tested compounds protect 50% of the tested animals against compound 48/80-induced lethality.

Row | SMILES | ED50
1 | C=COCCN1CCC(Nc2nc3ccccc3n2Cc2ccc(F)cc2)CC1 [Compound 1, N-[1-[2-(ethenyloxy)ethyl]-4-piperidinyl]-1-(4-fluorophenylmethyl)-1H-benzimidazol-2-amine] | 0.08 mg/kg
2 | COc1ccc(CCN2CCC(Nc3nc4ncccc4n3Cc3ccc(F)cc3)CC2)cc1 [Compound 2, 1-[(4-fluorophenyl)methyl]-N-[1-[2-(4-methoxyphenyl)ethyl]-4-piperidinyl]-1H-imidazo[4,5-b]pyridin-2-amine] | 0.08 mg/kg
3 | COc1ccc(CCN2CCC(Nc3nc4cnccc4n3Cc3ccc(F)cc3)CC2)cc1 [Compound 3, 1-[(4-fluorophenyl)methyl]-N-[1-[2-(4-methoxyphenyl)ethyl]-4-piperidinyl]-1H-imidazo[4,5-c]pyridin-2-amine] | 0.16 mg/kg
4 | O=c1cc[nH]c(=O)n1CCN1CCC(Nc2nc3ccccc3n2Cc2ccc(F)cc2)CC1 [Compound 5, 3-[2-[4-[[1-[(4-fluorophenyl)methyl]-1H-benzimidazol-2-yl]amino]-1-piperidinyl]ethyl]-2,4-(1H,3H)-pyrimidinedione] | 0.08 mg/kg
5 | O=c1oc2ccccc2cc1CCN1CCC(Nc2nc3ccccc3n2Cc2cscn2)CC1 [Compound 6, 3-[2-[4-[[1-(4-thiazolylmethyl)-1H-benzimidazol-2-yl]amino]-1-piperidinyl]ethyl]-2H-1-benzopyran-2-one dihydrochloride.sesquihydrate] | 0.16 mg/kg
6 | O=c1oc2ccccc2cc1CCN1CCC(Nc2nc3cccnc3n2Cc2ccccn2)CC1 [Compound 7, 3-[2-[4-[[3-(2-pyridinylmethyl)-3H-imidazo[4,5-b]pyridin-2-yl]amino]-1-piperidinyl]ethyl]-2H-1benzopyran-2-one trihydrochloride.dihydrate] | 0.04 mg/kg
7 | O=c1oc2ccccc2cc1CCN1CCC(Nc2nc3ccccc3n2Cc2cccs2)CC1 [Compound 8, 3-[2-[4-[[1-(2-thienylmethyl)-1H-benzimidazol-2-yl]amino]-1-piperidinyl]ethyl]-2H-1-benzopyran-2-one] | 0.16 mg/kg
8 | O=c1oc2ccccc2cc1CCN1CCC(Nc2nc3ccccc3n2Cc2ccccn2)CC1 [Compound 9, 3-[2-[4-[[1-(2-pyridinylmethyl)-1H-benzimidazol-2-yl]amino]-1-piperidinyl]ethyl]-2H-1-benzopyran-2-one dihydrochloride.dihydrate] | 0.08 mg/kg
9 | O.O=c1oc2ccccc2cc1CCN1CCC(Nc2nc3ccccc3n2Cc2cccnc2)CC1 [Compound 10, 3-[2-[4-[[1-(3-pyridinylmethyl)-1H-benzimidazol-2-yl]amino]-1-piperidinyl]ethyl]-2H-1-benzopyran-2-one monohydrate] | 0.31 mg/kg
10 | O=c1oc2ccccc2cc1CCN1CCC(Nc2nc3ccccc3n2Cc2ccc(F)cc2)CC1 [Compound 12, 3-[2-[4-[[1-[(4-fluorophenyl)methyl]-1H-benzimidazol-2-yl]amino]-1-piperidinyl]ethyl]-2H-1-benzopyran-2-one] | 0.16 mg/kg
11 | COc1ccc(CCN2CCC(Nc3nc4ccccc4n3Cc3cnccn3)CC2)cc1 [Compound 13, N-[1-[2:(4-methoxyphenyl)ethyl]-4-piperidinyl]-1-[(2-pyrazinyl)methyl]-1H-benzimidazol-2-amine] | 0.04 mg/kg
12 | O.O=c1oc2ccccc2cc1CCN1CCC(Nc2nc3ccccc3n2Cc2ccco2)CC1 [Compound 14, 3-[2-[4-[[1-(2-furanylmethyl)-1H-benzimidazol-2-yl]amino]-1-piperidinyl]ethyl]-2H-1-benzopyran-2-one monohydrate] | 0.08 mg/kg
13 | O=c1oc2ccccc2cc1CCN1CCC(Nc2nc3cccnc3n2Cc2ccco2)CC1 [Compound 15, 3-[2-[4-[[3-(2-furanylmethyl)-3H-imidazo[4,5-b]pyridin-2-yl]amino]-1-piperidinyl]ethyl]-2H-1-benzopyran-2-one] | 0.01 mg/kg
14 | O.O=c1oc2ccccc2cc1CCN1CCC(Nc2nc3cccnc3n2Cc2ccc(F)cc2)CC1 [Compound 16, 3-[2-[4-[[3-[(4-fluorophenyl)methyl]-3H-imidazo [4,5-b]pyridin-2-yl]-amino]-1-piperidinyl]ethyl]-2H-1-benzopyran-2-one monohydrate] | 0.04 mg/kg
